Structures can show the parent of a compound that is named as a salt.
Key:
Bcl-2 protein = target: T1, Bcl-2 protein (histag-Bcl-2, UniProtKB P10415) (Homo sapiens, UniProt P10415); test: Inhibition of Bcl-2 by the fluorescence polarisation technique; type: binding; conditions: for IC50: fluorescence polarisation, 2 hours incubation, read-out: IC50 (nM) Bcl-2 FP
T1 construct: His tag
Method in brief: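 Fluorescence polarisation competition: His-tagged human Bcl-2 (2.50×10^−8 M final) was mixed with fluorescein-labelled peptide (1.00×10^−8 M final) and increasing compound concentrations. Buffer was 10 mM Hepes, 150 mM NaCl, 0.05% Tween20, pH 7.4. Polarisation was read after 2 h.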

[1] = tested on: RS4;11 leukaemia tumour line; test: In vitro cytotoxicity (MTT) on RS4;11; type: cell-based; conditions: RS4;11 cells, 48 hours exposure
Protocol: The cytotoxicity studies were carried out on the RS4;11 leukaemia tumour line.
The cells are distributed onto microplates and exposed to the test compounds for 48 hours.
The cell viability is then quantified by a colorimetric assay, the Microculture Tetrazolium Assay (Cancer Res., 1987, 47, 939-942).

T1 sequence (P10415 whole entry): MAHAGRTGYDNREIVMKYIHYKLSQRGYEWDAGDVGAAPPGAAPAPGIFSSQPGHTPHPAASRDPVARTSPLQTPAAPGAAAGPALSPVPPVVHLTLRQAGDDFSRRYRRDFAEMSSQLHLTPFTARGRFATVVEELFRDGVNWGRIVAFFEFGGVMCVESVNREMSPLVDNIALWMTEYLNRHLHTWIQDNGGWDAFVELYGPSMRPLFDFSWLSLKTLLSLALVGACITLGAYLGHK

Row | Compound | IC50 (Bcl-2 protein) | IC50 ([1]; Homo sapiens) | percentage fluorescence polarisation inhibition (partial inhibitors), Bcl-2 FP (Bcl-2 protein; @ 10 μM test compound) | IC50 [1]
1 | CC(C)N(C(=O)c1cc(-c2cc3c(cc2C(=O)N2Cc4ccccc4C[C@H]2C)OCO3)n2c1CNCC2)c1ccc(O)cc1 [Example 80, N-(4-Hydroxyphenyl)-6-(6-{[(3R)-3-methyl-3,4-dihydroisoquinolin-2(1H)-yl]carbonyl}-1,3-benzodioxol-5-yl)-N-(propan-2-yl)-1,2,3,4-tetrahydro-pyrrolo[1,2-a]pyrazine-8-carboxamide] | 299 nM | 1880 nM |  | 
2 | C[C@@H]1Cc2ccccc2CN1C(=O)c1cc2c(cc1-c1cc(C(=O)N(C)c3ccc(O)cc3)c3n1CCCC3)OCO2 [Example 81, N-(4-Hydroxyphenyl)-N-methyl-3-(6-{[(3R)-3-methyl-3,4-dihydroiso-quinolin-2(1H)-yl]carbonyl}-1,3-benzodioxol-5-yl)-5,6,7,8-tetrahydroindolizine-1-carboxamide] | 12.1 nM | 778 nM |  | 
3 | C[C@H]1Cc2ccccc2CN1C(=O)c1cc2c(cc1-c1cc(C(=O)N(C)c3ccc(O)cc3)c3n1CCCC3)OCO2 [Example 82, N-(4-Hydroxyphenyl)-N-methyl-3-(6-{[(3S)-3-methyl-3,4-dihydroiso-quinolin-2(1H)-yl]carbonyl}-1,3-benzodioxol-5-yl)-5,6,7,8-tetrahydroindolizine-1-carboxamide] |  |  | 42% @ 10 μM | 1880 nM
4 | CN(C(=O)c1cc(-c2cc3c(cc2C(=O)N2CCc4ccccc4C2)OCO3)n2ccccc12)c1ccc(O)cc1 [Example 83, 3-[6-(3,4-Dihydroisoquinolin-2(1H)-ylcarbonyl)-1,3-benzodioxol-5-yl]-N-(4-hydroxyphenyl)-N-methylindolizine-1-carboxamide] | 35.8 nM | 1500 nM |  | 
5 | Cc1cnn2cc(N(C(=O)c3cc(-c4cc5c(cc4C(=O)N4Cc6ccccc6C[C@H]4C)OCO5)n4ccccc34)c3ccc(O)cc3)cnc12 [Example 86, N-(4-Hydroxyphenyl)-3-[6-[(3R)-3-methyl-3,4-dihydro-1H-isoquinoline-2-carbonyl]-1,3-benzodioxol-5-yl]-N-(3-methylpyrazolo[1,5-a]pyrimidin-6-yl)-indolizine-1-carboxamide hydrochloride] | 5 nM | 20.1 nM |  | 

Source: patent US10414754B2, “Indolizine compounds, a process for their preparation and pharmaceutical compositions containing them” (LES LABORATOIRES SERVIER, priority 2013, dated 2019)
